Here are results for two compounds from US20240287614A1, “RECIPROCAL MICRORNA-MRNA PAIRINGS AS BIOMARKERS AND THERAPEUTIC TARGETS IN CANCER” (UNIVERSITY OF MARYLAND, EASTERN SHORE, priority 2023, published 2024).

Data set [1] has as its system prostate cancer (LNCaP and PC-3) and prostate cancer (RC77 T/E and MDA PCa 2b) cell lines. The experiment in a line: Caspase 3/7 activity-based apoptosis assay, prostate cancer cell lines. The arrangement: species or system human. Particulars: for apoptosis (caspase 3/7 activity), docetaxel treatment alone: without miRNA mimic/antagomir transfection. As to the method:
[…] RC77 T/E, a primary prostate cancer cell line derived from a patient, was kindly provided by Dr. Johng Rhim at Center for Prostate Disease Research (CPDR) in Rockville, MD. LNCaP and PC-3 were served as prostate cancer cell line models, and RC77 T/E and MDA PCa 2b were served as prostate cancer cell models in the study. The cells were cultured in specific cell culture media, LNCaP was cultured in RPMI with 10% fetal bovine serum (FBS), PC-3 was cultured in DMEM with 10% FBS, MDA PCa 2b were cultured in BRFF-HPC1 with 20% FBS and RC77 T/E was cultured in Keratinocyte SFM with Human Recombinant Epidermal Growth Factor (EGF 1-53) and Bovine Pituitary Extract (BPE). Cells were maintained at 37° C. in a 5% CO2 incubator. LNCaP, PC-3 and MDA PCa 2b cells were seeded at density 3×10^4 cells/well in 6-well plates. RC77 T/E cells were seeded at density 5×10^4 cells/well in 6-well plates. The cells were allowed to grow for 24 h and then were either transfected with miR-34a-5p mimic, miR-99b-5p mimic, or miR-96-5p antagomir using DharmaFECT4 transfection reagent (Dharmacon), according to the manufacturer's protocol. After 24 h, the cells were replaced with fresh media then incubated for 24 h. miR-34a-5p mimic, miR-99b-5p mimic, miR-96-5p antagomir, and nonsense miRNA mimic and antagomir controls were purchased from Ambion. Nonsense/scrambled miRNA mimic and antagomir were used as negative controls.
For the measurement of apoptosis initiation by transfection of miRNA mimic or antagomir in prostate cancer cells, the transfected cells 5000 cells/well were seeded onto 96-well cell culture plates (Corning) and then incubated overnight. The miRNA mimic/antagomir transfected cells were then treated with vehicle or […] of Docetaxel. 24 h after the vehicle or drug treatment, the apoptosis assays were performed using Apo-ONE Caspase-3/7 Assay Kit (Promega Corporation) according to the protocol described by the manufacturer. 100 μL of homogeneous Caspase-3/7 reagent was added to the sample plate and incubated at room temperature for 1 h. Fluorescence was detected for measuring the apoptosis state (Caspase 3/7 activity) using Biotek Synergy HT Microplate Reader (BioTek) at wavelengths of 499 nm and 521 nm for excitation and emission, respectively.

Data set [2] deals with PIK3CB. The experiment in a line: RT-qPCR of PIK3CB expression after miRNA mimic transfection. In kind it is cell-based, human. The following applies: African American and European American prostate cancer cells; vs nonsense/scrambled (NS) miRNA control. As to the method:
(§1) […] RC77 T/E, a primary prostate cancer cell line derived from a patient, was kindly provided by Dr. Johng Rhim at Center for Prostate Disease Research (CPDR) in Rockville, MD. LNCaP and PC-3 were served as prostate cancer cell line models, and RC77 T/E and MDA PCa 2b were served as prostate cancer cell models in the study. The cells were cultured in specific cell culture media, LNCaP was cultured in RPMI with 10% fetal bovine serum (FBS), PC-3 was cultured in DMEM with 10% FBS, MDA PCa 2b were cultured in BRFF-HPC1 with 20% FBS and RC77 T/E was cultured in Keratinocyte SFM with Human Recombinant Epidermal Growth Factor (EGF 1-53) and Bovine Pituitary Extract (BPE). Cells were maintained at 37° C. in a 5% CO2 incubator. LNCaP, PC-3 and MDA PCa 2b cells were seeded at density 3×10^4 cells/well in 6-well plates. RC77 T/E cells were seeded at density 5×10^4 cells/well in 6-well plates. […]
(§2) For the measurement of gene expression level, total RNA was isolated using miRNeasy Mini Kit (50) (Qiagen) from the prostate cancer cells used in the study. Quantification of total RNA samples were done using NanoVue Plus spectrophotometer (GE Healthcare). […] Reverse transcription was performed using iScript Reverse Transcription Supermix kit (Bio-Rad) to generate cDNA then followed by performing quantitative PCR (qPCR) assays using SsoAdvanced Universal SYBR Green supermix kit (Bio-Rad). […]
In general terms: Real-time PCR tracks product formation cycle by cycle.

The test system of data set [3] is HIF1A. The experiment in a line: RT-qPCR of HIF1A expression after miRNA mimic transfection. In kind it is cell-based, human. The following applies: African American and European American prostate cancer cells; vs nonsense/scrambled (NS) miRNA control. As to the method:
as §1, §2

In data set [4] the test system is IGFBP2. As to the kind of experiment: RT-qPCR of IGFBP2 expression after miRNA mimic transfection. The following applies: African American and European American prostate cancer cells; vs nonsense/scrambled (NS) miRNA control. The data set is classed as cell-based, human. As to the method:
as §1, §2

For data set [5], the system named is PI3Kβ. As to the kind of experiment: Western blot of PI3Kβ in transfected prostate cancer cells. The following applies: mimic transfected vs NS transfected. The data set is classed as cell-based, human. As to the method: as §1
(§3) For measurement of the gene expression at protein level, proteins were extracted using M-PER Mammalian Protein Extraction Reagent (Thermo Fisher Scientific) with protease and phosphatase inhibitor cocktail (Thermo Fisher Scientific). Protein concentrations were quantified using BCA assay kit (Thermo Fisher Scientific). […]

For data set [6], the system named is HIF1A. The experiment in a line: Western blot of HIF1a in transfected prostate cancer cells. In kind it is cell-based, human. Particulars: mimic transfected vs NS transfected. As to the method: as §1, §3
(In general: A western blot detects proteins with antibodies after separation by electrophoresis.)

In data set [7] the test system is IGFBP2. The experiment in a line: Western blot of IGFBP2 in transfected prostate cancer cells. In kind it is cell-based, human. The following applies: mimic transfected vs NS transfected. As to the method:
as §1, §3

The subject of data set [8] is prostate cancer (LNCaP and PC-3) and prostate cancer (RC77 T/E and MDA PCa 2b) cell lines. The experiment in a line: BrdU-labeling cell proliferation assay. The data set is classed as cell-based, human. The following applies: PC-3, RC77 T/E and MDA PCa 2b, 48 h transfection, vs NS. As to the method:
as §1
LNCaP, PC-3, RC77 T/E and MDA PCa 2b cells were seeded at density 3×10^4 cells/well in 6-well culture plates. […] 100 μL of stop solution was used to stop further reaction and followed by checking absorbance at dual wavelengths of 450 nm and 540 nm using Multiskan FC microplate photometer (Thermo Scientific).

Setting [9] is: RC77 T/E and MDA PCa 2b, 11 mM of Docetaxel, 24 h.

As to `CC(=O)O[C@@]12CO[C@@H]1C[C@H](O)[C@@]1(C)C(=O)[C@H](O)C3=C(C)[C@@H](OC(=O)[C@H](O)[C@@H](NC(=O)OC(C)(C)C)c4ccccc4)C[C@@](O)([C@@H](OC(=O)c4ccccc4)[C@H]21)C3(C)C` [docetaxel, reference compound], the “apoptosis (caspase 3/7 activity), docetaxel treatment alone” value is reported as “significantly induced apoptosis” in data set [1] (LNCaP, 11 mM of Docetaxel, 24 h); “not” in data set [1] (setting [9]); “not” in data set [1] (androgen-independent PC-3, 11 mM of Docetaxel, 24 h).
For “miR-34a-5p mimic: miRNA mimic of miR-34a-5p (SEQ ID NO: 1, UGGCAGUGUCUUAGCUGGUUGU), purchased from Ambion (listed as RNA, chemistry not given here; listed as Homo sapiens)”, in data set [2], the “PIK3CB expression (RT-qPCR)” value is reported as “decreased”. Besides, the “HIF1A expression (RT-qPCR)” value in data set [3] is reported as “decreased”. For the same compound, the “IGFBP2 expression (RT-qPCR)” value in data set [4] is given as “decreased”. The “PI3Kβ protein level (Western blot)” value in data set [5] is “downregulated”. In addition, in data set [6], the “HIF1a protein level (Western blot)” value was “downregulated”. In data set [7], the “IGFBP2 protein level (Western blot)” value is “downregulated”. Further, the “cell proliferation (BrdU labeling)” value in data set [8] is “reduction”. For the same compound, the “docetaxel-induced cytotoxicity (caspase 3/7 activity), combination with docetaxel” value in data set [1] (LNCaP cells, 11 mM of Docetaxel, 24 h) was “further enhanced”. Further, the “apoptosis (caspase 3/7 activity), transfection in the presence of docetaxel” value in data set [1] (setting [9]) is “significantly induced apoptosis”. The “cell apoptosis (caspase 3/7 activity) compared with NS transfected cells” value in data set [1] (absence of docetaxel (vehicle control), LNCaP, PC-3, RC77 T/E, MDA PCa 2b) is “overall generalized or significant increase”.
